# Source: patent publication US20080255183A1, “N-[HETEROARYLCARBONYL]-3-THIENYL-L-ALANINE DERIVATIVES AS a5beta1 ANTAGONISTS” (ASTRAZENECA AB, priority 2007, published 2008)
# Where two headings read alike, the source gives them in different places.
# How the values were obtained:
# [1] = target: recombinant human α5β1 integrin (Homo sapiens, UniProt P05556+P08648); experiment: In vitro binding assay (a): inhibition of binding of α5β1 integrin to a fragment of human fibronectin (Fn9-10), Origen electrochemiluminescence; settings: geometric mean of the measured IC50 values; n given below each value
# Chain of recombinant human α5β1 integrin (P08648 42-894 limits assumed): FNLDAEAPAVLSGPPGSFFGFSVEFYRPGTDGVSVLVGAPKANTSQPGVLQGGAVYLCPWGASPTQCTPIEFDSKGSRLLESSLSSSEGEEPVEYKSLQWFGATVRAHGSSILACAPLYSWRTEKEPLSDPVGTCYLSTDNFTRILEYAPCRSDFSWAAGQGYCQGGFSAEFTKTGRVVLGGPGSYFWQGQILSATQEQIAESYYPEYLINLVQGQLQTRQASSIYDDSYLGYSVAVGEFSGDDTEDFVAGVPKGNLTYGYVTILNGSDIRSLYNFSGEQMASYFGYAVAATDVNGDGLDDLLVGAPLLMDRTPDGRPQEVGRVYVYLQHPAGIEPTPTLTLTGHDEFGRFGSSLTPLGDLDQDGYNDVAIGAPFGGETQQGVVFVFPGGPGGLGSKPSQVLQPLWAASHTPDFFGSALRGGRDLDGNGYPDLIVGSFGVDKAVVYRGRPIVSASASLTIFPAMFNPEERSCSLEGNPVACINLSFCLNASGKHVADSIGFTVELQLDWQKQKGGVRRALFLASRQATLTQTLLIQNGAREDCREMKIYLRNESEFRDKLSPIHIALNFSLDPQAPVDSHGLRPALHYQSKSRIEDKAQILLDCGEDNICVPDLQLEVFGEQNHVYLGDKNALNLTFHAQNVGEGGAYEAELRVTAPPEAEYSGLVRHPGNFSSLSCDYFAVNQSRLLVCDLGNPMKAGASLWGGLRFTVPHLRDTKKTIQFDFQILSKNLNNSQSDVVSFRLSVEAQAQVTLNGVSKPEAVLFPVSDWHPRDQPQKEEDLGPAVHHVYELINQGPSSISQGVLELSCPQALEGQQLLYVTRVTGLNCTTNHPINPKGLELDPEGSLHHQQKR
# Chain of recombinant human α5β1 integrin (P08648 895-1049 partner limits assumed): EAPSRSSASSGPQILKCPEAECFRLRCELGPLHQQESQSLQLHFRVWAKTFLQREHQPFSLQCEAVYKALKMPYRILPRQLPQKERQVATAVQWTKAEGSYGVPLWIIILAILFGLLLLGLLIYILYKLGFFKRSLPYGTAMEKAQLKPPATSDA
# Chain of recombinant human α5β1 integrin (P05556 21-798): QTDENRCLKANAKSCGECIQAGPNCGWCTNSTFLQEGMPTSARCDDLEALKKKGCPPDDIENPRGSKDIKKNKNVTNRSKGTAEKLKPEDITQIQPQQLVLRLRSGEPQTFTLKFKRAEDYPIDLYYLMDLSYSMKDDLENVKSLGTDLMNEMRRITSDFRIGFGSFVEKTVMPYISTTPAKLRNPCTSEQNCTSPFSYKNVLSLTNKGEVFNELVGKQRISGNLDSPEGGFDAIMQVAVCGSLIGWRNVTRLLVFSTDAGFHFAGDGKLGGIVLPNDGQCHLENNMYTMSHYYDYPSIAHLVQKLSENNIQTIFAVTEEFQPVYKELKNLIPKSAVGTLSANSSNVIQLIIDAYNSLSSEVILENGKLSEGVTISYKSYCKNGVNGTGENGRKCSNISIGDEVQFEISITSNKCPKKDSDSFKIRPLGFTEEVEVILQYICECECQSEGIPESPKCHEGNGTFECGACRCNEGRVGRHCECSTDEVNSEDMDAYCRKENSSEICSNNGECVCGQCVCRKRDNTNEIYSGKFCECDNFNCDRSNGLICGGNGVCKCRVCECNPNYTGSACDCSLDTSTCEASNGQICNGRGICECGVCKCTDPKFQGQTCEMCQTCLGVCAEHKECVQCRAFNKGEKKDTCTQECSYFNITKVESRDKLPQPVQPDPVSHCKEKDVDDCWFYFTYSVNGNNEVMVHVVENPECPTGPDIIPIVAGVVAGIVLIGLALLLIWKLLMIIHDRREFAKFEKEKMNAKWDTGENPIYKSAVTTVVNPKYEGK
# Source text: The assay determined the ability of compounds to inhibit binding of α5β1 integrin to a cognate ligand, a fragment of human fibronectin. The assay used Origen technology (IGEN International) to measure the compound activity. Briefly, α5β1 integrin was coated onto epoxy-paramagnetic beads (Dynal Biotech UK, Bromborough, Wirral, CH62 3QL, UK, Catalogue No 140.11) and biotinylated-fibronectin ligand was coupled to strepatividin labeled Tag-NHS-Ester (BioVeris Corporation, Witney, Oxfordshire, OX28 4GE, UK, Catalogue No 110034). The ruthenium-labeled tag emits an electrochemiluminescence signal upon stimulation which is detected by the Origen reader. Thus, interaction of integrin and ligand causes association of bead and tag, and the resulting electrochemiluminescence signal reflects the level of integrin interaction with fibronectin.
# 20 μg of recombinant human α5β1 was coated onto 4×10(7) epoxy-paramagnetic beads according to manufacturers instructions at 4° C. for 24 hours. Integrin coating and corresponding activity was subsequently measured for each batch but typically, 25 ng of coated protein was used per assay well.
# A DNA fragment encoding the domains 9-10 (amino-acids 1325-1509) of human fibronectin (Swiss-Prot Accession No. P02751) was isolated from cDNA libraries using standard molecular biology and PCR cloning techniques. The cDNA fragment was sub-cloned into a pT73.3 expression vector containing a GST-epitope tag (developed at AstraZeneca; Bagnall et al., Protein Expression and Purification, 2003, 27: 1-11). Following expression in E. coli, the expressed protein, termed Fn9-10, was purified using the GST-tag using standard purification techniques. The recombinant Fn9-10 was subsequently biotinylated using a EZ-link Sulfo-NHS-LC-Biotinylation kit (Perbio Science UK Ltd., Cramlington, Northumberland, NE231WA, UK, Catalogue No. 21335) and made to give a final concentration of approximately 1 mg/mil. Tag-NHS-Ester was labeled with streptavidin by incubation at room temperature following manufacturers instructions and buffer-exchanged into PBS to give a concentration of 0.5 mg/ml. Immediately prior to the assay, biotinylated-Fn9-10 and Streptavidin-labeled Tag were diluted in Assay Buffer to give a final concentrations of 0.6 ug/ml and 1.5 ug/ml respectively. The Fn9-10 and Tag solutions were then mixed together in equal volumes and incubated on ice for at least 30 minutes prior to the assay.
# Test compounds were prepared as 10 mM stock solutions in DMSO (Sigma-Aldrich Company Ltd, Gillingham, Dorset SP8 4XT Catalogue No. 154938) and serially diluted with 4% DMSO to give a range of test concentrations at ×4 required final concentration. Aliquots (20 μl) of each compound dilution were placed into each well of a 384-well round bottomed polypropylene plate (Matrix Technologies, Wilmslow, Cheshire, SK9 3LP, Catalogue No. 4340 384). Each plate also contained control wells: maximum signal was created using wells containing 20 μl of 4% DMSO, and minimum signal corresponding to no binding was created using wells containing 20 μl of 80 mM EDTA (Sigma Catalogue No. E7889).
# For the assay, 25 ng (20 ul) of a5b1-bead suspension and […] of the Fn9-10/Tag pre-incubated solution were added to each well containing 20 μl of compound or control solution. Assay plates were then incubated at room temperature for a minimum of 6 hours before being analysed on an Origen plate reader. […]
# [2] = test system: α5β1 integrin mediated adhesion of K562 cells; experiment: In vitro cell adhesion assay (b): inhibition of α5β1 integrin mediated adhesion of K562 cells to fibronectin fragment Fn9-10; format: cell-based, human
# Source text: The assay determined the ability of compounds to inhibit the α5β1 integrin mediated adhesion of K562 cells to the ligand, a fragment of human fibronectin. The human K562 erythroleukaemia cell line (LGC Promochem, Teddington, Middlesex, UK, Catalogue No. CCL-243) was routinely maintained in RPMI 1640 medium (Sigma-Aldrich Company Ltd, Gillingham, Dorset SP8 4XT, Catalogue No. R0883) containing 10% heat-inactivated foetal calf serum (PAA lab GmbH, Pasching, Austria Catalogue No. PAA-A15-043) and 1% glutamax-1 (Invitrogen Ltd. Paisley, UK Catalogue No. 35050-038) at 37° C. with 5% CO2 at densities between 1×10^5 and 1×10^6 cells/ml.
# A DNA fragment encoding the domains 9-10 (amino-acids 1325-1509) of human fibronectin (Swiss-Prot Accession No. P02751) was isolated from cDNA libraries using standard molecular biology and PCR cloning techniques. The cDNA fragment was sub-cloned into a pT7#3.3 expression vector containing a GST-epitope tag (developed at AstraZeneca; Bagnall et al., Protein Expression and Purification, 2003, 27: 1-11), and the fragment termed Fn9-10. Following expression in E. coli, the expressed protein was purified using the GST-tag using standard purification techniques.
# For adhesion assay, a 96-well flat bottomed plate (Greiner Bio one ltd., Gloucester GL10 3SX Catalogue No. 655101) was coated overnight at 4° C. with 100 μl of 20 μg/ml Fn9-10 ligand in Dulbecco's PBS (Gibco#14190-94). The plate was then washed twice with 200 μl of PBS and blocked with 100 μl of 3% BSA (SigmaA7888) in PBS for 1 hour at 37° C. The plates were then washed again 3 times with 200 μl of PBS and left empty.
# Test compounds were prepared as 10 mM stock solutions in DMSO (Sigma-Aldrich Company Ltd, Gillingham, Dorset SP8 4XT Catalogue No. 154938) and serially diluted with HBSS (Hanks Buffered Salt solution (Gibco Catalogue No. 14170-088)/2% DMSO to give a range of test concentrations at twice required final concentration. Aliquots (50 μl) of each compound dilution were placed into each well of the Fn9-10 coated plates. Each plate also contained control wells: maximum adhesion signal was created using wells containing 50 μl HBSS/2% DMSO, and minimum signal corresponding to no adhesion was created using wells containing 50 μl HBSS/2% DMSO/20 mM EDTA (Sigma Catalogue No. E7889).
# The K562 cells were cultured to 1×10^6 cells/ml, and each culture suspension pooled. Cells were centrifuged at 1200 rpm for 2 mins, and the pellets washed with HBSS followed by HBSS/50 mM HEPES (Sigma Catalogue No. H0887). Cell pellets were pooled and re-suspended in HBSS/0.4 mM manganese chloride/50 mM HEPES (MnCl; Sigma Catalogue No. M1787) to give a final concentration of 4×10^6 cells/ml.
# The assay was initiated by the addition of 50 μl of cell suspension into each coated well (200,000 cells/well), thus resulting in final desired compound concentration and a final MnCl concentration of 0.2 mM. The plates were incubated for 45 minutes at 37° C. 5% CO2. After this time, the solution was flicked off as waste, and the remaining cell layer carefully washed twice with 200 μl of PBS, and then fixed with 200 μl of 100% ethanol for 30 minutes.
# After fixation, the ethanol was flicked off to waste and 100 μl of 0.1% Crystal violet stain was added to each well, and incubated at ambient temperature for 15 minutes. Excess stain was removed by rinsing 3 times under cold slow running water. The plates were blotted over tissue then solubilised by adding 50 μl of 1% Triton X100 (Sigma Catalogue No. T9284) and shaking at 500 rpm for 30 mins on plate shaker. Finally, 100 μl of deionised water was added to each well and the absorbance was determined at 590 nm on a spectrophotometer. The minimum value was subtracted from all values, and the absorbance signal was plotted against compound concentration to generate IC50 data.
# [3] = Homo sapiens, K562, geometric mean of the measured IC50 values, n given below each value, read-out: Adhesion Assay (b) IC50
Structure (SMILES),IC50 [1],"IC50 [2, 3]","IC50 ([2]; Homo sapiens, K562, single determinations listed in brackets under the geometric mean (n = 3), read-out: Adhesion Assay (b) IC50, individual measured values)","IC50 ([2]; single determinations listed in brackets under the geometric mean (n = 3), read-out: Adhesion Assay (b) IC50, individual measured values)"
"CNc1cccc(CCCc2ccc(C[C@H](NC(=O)c3c(C)noc3C)C(=O)O)s2)n1 [Example 1.1, N-[(3,5-dimethylisoxazol-4-yl)carbonyl]-3-(5-{3-[6-(methylamino)pyridin-2-yl]propyl}thiophen-2-yl)-L-alanine]",4 nM,27 nM,–,–
"CNc1cccc(CCCc2ccc(C[C@H](NC(=O)c3c(Cl)cncc3Cl)C(=O)O)s2)n1 [Example 1.2, N-[(3,5-dichloropyridin-4-yl)carbonyl]-3-(5-{3-[6-(methylamino)pyridin-2-yl]propyl}thiophen-2-yl)-L-alanine]",1 nM,8 nM,–,–
"Cc1noc(C)c1C(=O)N[C@@H](Cc1ccc(CCCc2ccc3c(n2)NCCC3)s1)C(=O)O [Example 2, N-[(3,5-dimethylisoxazol-4-yl)carbonyl]-3-{5-[3-(5,6,7,8-tetrahydro-1,8-naphthyridin-2-yl)propyl]thiophen-2-yl}-L-alanine]",< 1 nM,12 nM,–,–
"O=C(N[C@@H](Cc1ccc(CCCc2ccc3c(n2)NCCC3)s1)C(=O)O)c1c(Cl)cncc1Cl [Example 3, N-(3,5-dichloroisonicotinoyl)-3-{5-[3-(5,6,7,8-tetrahydro-1,8-naphthyridin-2-yl)propyl]-thiophen-2-yl}-L-alanine]",0.3 nM,< 4 nM,5 nM,< 3 nM
"O=C(N[C@@H](Cc1ccc(OCCc2ccc3c(n2)NCCC3)s1)C(=O)O)c1c(Cl)cncc1Cl [Example 4, N-(3,5-dichloroisonicotinoyl)-3-{5-[2-(5,6,7,8-tetrahydro-1,8-naphthyridin-2-yl)ethoxy]-2-thienyl}-L-alanine]",< 1 nM,< 3 nM,–,–
